Laboratory results taken from PMC4501791, “Molecular Design, Synthesis and Trypanocidal Activity of Dipeptidyl Nitriles as Cruzain Inhibitors” (PLoS Neglected Tropical Diseases, 2015).

Columns and labels:
[1] = biological target: T1, cruzain (Trypanosoma cruzi, UniProt P25779); assay: biochemical; settings: 37°C, pH 5.5, substrate Z-FR-AMC;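 further: fluorometric read-out of substrate hydrolysis at excitation 355 nm and emission 460 nm, initial rates over 5 min, Ki from nonlinear kinetic fits, duplicate runs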
T1 construct: made in house
T1 sequence (P25779 123-337 limits assumed): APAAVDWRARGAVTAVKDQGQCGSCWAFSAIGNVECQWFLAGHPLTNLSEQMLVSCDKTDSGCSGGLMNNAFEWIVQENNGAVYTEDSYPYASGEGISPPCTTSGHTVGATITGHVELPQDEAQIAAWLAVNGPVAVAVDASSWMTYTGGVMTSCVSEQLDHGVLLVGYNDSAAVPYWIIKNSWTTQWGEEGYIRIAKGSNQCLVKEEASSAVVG
Protocol: Enzyme kinetic assays were carried out at 37°C in 200 L of a solution containing 100 mM acetate buffer pH 5.5, 300 mM NaCl, 5 mM DTT (dithiothreitol), 5% v/v DMSO (dimethyl sulfoxide), 0.01% v/v Triton X-100 and 0.15 nM cruzain, using Corning® 96-well black flat bottom microplates. The rate of the reaction was monitored using a Biotek Synergy HT plate reader through the fluorescence emission at 460 nm (excitation at 355 nm) due to the hydrolysis of the substrate Z-Phe-Arg-7-amido-4-methylcoumarin (Z-FR-AMC, Sigma-Aldrich). The enzyme stock aliquot was rapidly thawed at 37°C and kept on ice until activation, in which it was incubated for 20 min. in the assay buffer (100 mM acetate pH 5.5 and 5 mM DTT) followed by additional 2 min. incubation with inhibitors before the reaction was started by the addition of the substrate.
Visual inspection and a pre-reading of plate wells were performed to check for possible precipitation and background fluorescence, respectively. Fluorescence emission spectra were also recorded for all inhibitors, using the same excitation wavelength (355 nm) as for the fluorometric assay. […] The reaction was started by the addition of varying concentrations of the substrate and the wells monitored for a total of 5 minutes of reaction. The initial velocities of the substrate hydrolysis under first-order reaction were calculated by Gen5 Biotek software based on the linear-regression coefficient from the fit to data of Relative Fluorescence Unit (mRFU) as a function of time (min).
Each experiment was performed in duplicates for each compound being tested. […] All inhibitors were evaluated in two different concentrations, which were chosen based on a previous screening (percentage of inhibition) at 1.7 μM substrate (~K M). […] SigmaPlot (v. 10.0) was employed for the non-linear fit and the kinetic parameters determination.

[2] = system: T. cruzi CL-Brener strain amastigotes; assay: Trypanocidal activity against amastigote forms in LLCMK2 cells, CL-Brener strain; type: cell-based; settings: 5 days; for killing at 32 µM: Trypanosoma cruzi, LLC-MK2, 120 h, amastigote lysis, read-out: %cell lysis at 32 μM ama Brener
Protocol: (§1) The assays against amastigote forms were performed in LLCMK2 cells. Previously, the cells were cultivated in 96-wells microplates (10^3 cells/well). […] After this, the microplates were incubated at 37°C, in CO2 atmosphere, for 5 days. Then, 10 μL of FluoReporter lacZ/Galactosidase Quantitative Kit (Life Technologies) were added and after 30 minutes the fluorometric reaction was read in a microplate reader (Synergy H1, Biotek) at 386 nm excitation and 448 nm emission. For both assays the percentage of parasite lysis was determined from the following formula: %lysis = 100 –{[(X-PC)/(PC-NC)]x100}, where the optical density values of the samples (X), the positive controls (PC) and negative controls (NC) were used. Culture medium was used as positive control (PC) and medium with 0.6% DMSO (v/v) as negative control (NC). All assays were performed in triplicate with two independent experiments.

[3] = system: T. cruzi Tulahuen strain amastigotes; assay: Trypanocidal activity against amastigote forms in LLCMK2 cells, Tulahuen strain; type: cell-based; settings: T. cruzi Tulahuen strain; for %cell lysis at 32 μM ama Tula / killing at 32 µM: amastigote lysis, 5 days; for pEC50 ama Tula: amastigote; for killing at 32 µM: Trypanosoma cruzi, LLC-MK2, 120 h, read-out: %cell lysis at 32 μM ama Tula
Protocol: as §1

[4] = system: LLCMK2 cells; assay: Lysis of LLCMK2 host cells; type: cell-based; settings: for cytotoxicity at 32 µM: Macaca mulatta, LLC-MK2, 32 μM, read-out: %cell lysis at 32 μM LLCMK2

With `Cn1nc(C(C)(C)C)cc1C(=O)N[C@@H](Cc1ccccc1)C(=O)NCC#N` [Compound 21, (2S)-2-[(3-tert-butyl-1-methyl-1H-pyrazol-5-yl)formamido]-N-(cyanomethyl)-3-phenylpropanamide] the melting point was 160 to 162 °C and the Ki [1] was 0.0631 µM.

For `Cn1nc(C(F)(F)F)cc1C(=O)N[C@@H](Cc1ccccc1)C(=O)NCC#N` [Compound 22], the “%cell lysis at 32 μM ama Brener” value [2] was 20 ± 2%, the “%cell lysis at 32 μM ama Tula” value [3] was 48 ± 4% and the “pEC50 ama Tula” value [3] was 4.0. For the same compound, the pKi [1] was 6.3 and the “%cell lysis at 32 μM LLCMK2” value [4] was 19 ± 0.4%.

With `N#CCNC(=O)[C@H](Cc1ccccc1)NC(=O)c1cc(=O)[nH]c(=O)[nH]1` [Compound 23, (2S)-N-(cyanomethyl)-2-[(2,6-dioxo-1,2,3,6-tetrahydropyrimidin-4-yl)formamido]-3-phenyl propanamide] the “%cell lysis at 32 μM ama Brener” value [2] was 27 ± 1%, the “%cell lysis at 32 μM ama Tula” value [3] was 0% and the pKi [1] was 5.9. For the same compound, the “%cell lysis at 32 μM LLCMK2” value [4] was 22 ± 5%.

For `N#CCNC(=O)[C@H](Cc1ccccc1)NC(=O)OCc1ccccc1` [Compound 24, Benzyl N-[(1S)-1-[(cyanomethyl)carbamoyl]-2-phenylethyl]carbamate], the Ki [1] was 0.501 µM.

For `CC(C)(C)OC(=O)N[C@@H](Cc1ccccc1)C(=O)NCC#N` [Compound 25, Tert-butyl-N-[(1S)-1-[(cyanomethyl)carbamoyl]-2-phenylethyl]carbamete], the “%cell lysis at 32 μM ama Brener” value [2] was 23 ± 2%, the “%cell lysis at 32 μM ama Tula” value [3] was 37 ± 1% and the “pEC50 ama Tula” value [3] was 4.1. For the same compound, the pKi [1] was 5.6 and the “%cell lysis at 32 μM LLCMK2” value [4] was 31 ± 2%.

Work on `CC(C)C[C@H](NC(=O)OC(C)(C)C)C(=O)NCC#N` [Compound 27, tert-butyl N-[(1S)-1-[(cyanomethyl)carbamoyl]-3-methylbutyl]carbamate] yielded a killing at 32 µM [2] of 19 ± 3%, a killing at 32 µM [3] of 0% and a Ki [1] of 1.26 µM. For the same compound, the cytotoxicity at 32 µM [4] was 0%.

For `CC(C)C[C@H](NC(=O)c1cc(C(C)(C)C)nn1C)C(=O)NCC#N` [Compound 29, (2S)-2-[(3-tert-butyl-1-methyl-1H-pyrazol-5-yl)formamido]-N-(cyanomethyl)-4 methylpentanamide], the melting point was 179 to 180 °C, the killing at 32 µM [2] was 10 ± 1% and the killing at 32 µM [3] was 17 ± 4%. The Ki [1] was 0.0631 µM and the cytotoxicity at 32 µM [4] was 27 ± 18%.

Compound `CC(C)C[C@H](NC(=O)c1cc(C(C)(C)C)nn1C)C(=O)NC1(C#N)CC1` [Compound 30, (2S)-2-[(3-tert-butyl-1-methyl-1H-pyrazol-5-yl)formamido]-N-(1-cyanocyclopropyl)-4-methylpentanamide] has a killing at 32 µM [2] of 11 ± 6% and a Ki [1] of 0.0251 µM.

`CC(C)C[C@H](NC(=O)OC(C)(C)C)C(=O)NC1(C#N)CC1` [Compound 31, tert-butyl N-[(1S)-1-[(1-cyanocyclopropyl)carbamoyl]-3-methylbutyl]carbamate] showed a Ki [1] of 0.631 µM.

For `CC(C)(C)C[C@H](NC(=O)c1ccccc1)C(=O)NC1(C#N)CC1` [Compound 32, (2S)-N-(1-cyanocyclopropyl)-4,4-dimethyl-2-(phenylformamido)pentanamide], the melting point was 186 to 187 °C and the Ki [1] was 25.1 µM.

Work on `Cn1nc(C(F)(F)F)cc1C(=O)N[C@@H](Cc1ccccc1)C(=O)NC1(C#N)CC1` [Compound 33, (2S)-N-(1-cyanocyclopropyl)-2-{[1-methyl-3-(trifluoromethyl)-1H-pyrazol-5-yl]formamido}-3-phenylpropanamide] yielded a melting point of 211 to 212 °C, a killing at 32 µM [2] of 22 ± 10% and a Ki [1] of 0.398 µM.

With `Cn1nc(C(C)(C)C)cc1C(=O)N[C@@H](Cc1ccccc1)C(=O)NC1(C#N)CC1` [Compound 34, (2S)-2-[(5-tert-butyl-2-methylpyrazol-3-yl)formamido]-N-(1-cyanocyclopropyl)-3-phenylpropanamide] the killing at 32 µM [2] was 23 ± 3%, the killing at 32 µM [3] was 0% and the Ki [1] was 0.0631 µM. It also gave a cytotoxicity at 32 µM [4] of 17 ± 3%.

With `N#CC1(NC(=O)[C@H](Cc2ccccc2)NC(=O)c2cnccn2)CC1` [Compound 35, (2S)-N-(1-cyanocyclopropyl)-3-phenyl-2-(pyrazin-2-ylformamido)propanamide] the melting point was 162 to 164 °C and the Ki [1] was 0.501 µM.

For `N#Cc1cccc(C[C@H](NC(=O)c2ccccc2)C(=O)NC2(C#N)CC2)c1` [Compound 36, (2S)-N-(1-cyanocyclopropyl)-3-(3-cyanophenyl)-2-(phenylformamido)propanamide], the melting point was 191 to 194 °C and the Ki [1] was 3.98 µM.

In the case of `N#CC1(NC(=O)C2(NC(=O)c3ccccc3)CCCC2)CC1` [Compound 37], the “%cell lysis at 32 μM ama Brener” value [2] is reported as 8 ± 3%, the “%cell lysis at 32 μM ama Tula” value [3] is reported as 34 ± 5% and the “pEC50 ama Tula” value [3] is reported as 4.1. The pKi [1] was 4.9 and the “%cell lysis at 32 μM LLCMK2” value [4] was 26 ± 3%.
